Source: paper PMC4877593, “Design and Synthesis of Potent in Vitro and in Vivo Anticancer Agents Based on 1-(3′,4′,5′-Trimethoxyphenyl)-2-Aryl-1H-Imidazole” (Scientific Reports, 2016)
Like-named read-outs stand apart in the source and are kept apart here.

What was measured:
HeLa [1] = assay: In vitro antiproliferative activity (MTT), HeLa; format: cell-based; conditions: Homo sapiens, tumor cell proliferation, 72 h, mean ± SE
Method: (§1) Human T-cell leukemia (CCRF-CEM and Jurkat) and human B-cell leukemia (SEM) cells were grown in RPMI-1640 medium (Gibco, Milano, Italy). Breast adenocarcinoma (MCF7), human cervix carcinoma (HeLa), and human colon adenocarcinoma (HT-29) cells were grown in DMEM medium (Gibco, Milano, Italy), all supplemented with 115 units/mL penicillin G (Gibco, Milano, Italy), 115 μg/mL streptomycin (Invitrogen, Milano, Italy), and 10% fetal bovine serum (Invitrogen, Milano, Italy). Stock solutions (10 mM) of the different compounds were obtained by dissolving them in dimethyl sulfoxide (DMSO). Individual wells of a 96-well tissue culture microtiter plate were inoculated with 100 μL of complete medium containing 8 × 10^3 cells. The plates were incubated at 37 °C in a humidified 5% CO2 incubator for 18 h prior to the experiments. After medium removal, 100 μL of fresh medium containing the test compound at different concentrations was added to each well in triplicate and incubated at 37 °C for 72 h. The percentage of DMSO in the medium never exceeded 0.25%. This was also the maximum DMSO concentration in all cell-based assays described below. […] Different concentrations of the test compounds were added, and viability was determined 72 h later by the MTT test. For cytotoxicity evaluations in resting PBL cultures, non-adherent cells were resuspended (5 × 10^5 cells/mL) and treated for 72 h with the test compounds, as described above.

A549 = assay: In vitro antiproliferative activity (MTT), A549; format: cell-based; conditions: Homo sapiens, tumor cell proliferation, 72 h, mean ± SE
Method: as §1

RS4;11 = assay: In vitro antiproliferative activity (MTT), RS4;11; format: cell-based; conditions: Homo sapiens, tumor cell proliferation, 72 h, mean ± SE
HL-60 = assay: In vitro antiproliferative activity (MTT), HL-60; format: cell-based; conditions: Homo sapiens, tumor cell proliferation, 72 h, mean ± SE
bovine brain tubulin = assay: Inhibition of tubulin polymerization (turbidimetry); format: biochemical
Method: To evaluate the effect of the compounds on tubulin assembly in vitro[22], varying concentrations of compounds were preincubated with 10 μM bovine brain tubulin in glutamate buffer at 30 °C and then cooled to 0 °C. After addition of 0.4 mM GTP (final concentration), the mixtures were transferred to 0 °C cuvettes in a recording spectrophotometer equipped with an electronic temperature controller and warmed to 30 °C. Tubulin assembly was followed turbidimetrically at 350 nm. […] The ability of the test compounds to inhibit colchicine binding to tubulin was measured as described, except that the reaction mixtures contained 1 μM tubulin, 5 μM [^3H]colchicine and 1 or 5 μM test compound.

Jurkat cells = assay: Cell cycle distribution by flow cytometry (PI), Jurkat; format: cell-based, human; conditions: 24 h treatment
Method: The effects of a 24 h treatment with different concentrations of 4o on cell cycle progression in Jurkat, and HeLa cells were determined by flow cytometry, following propidium iodide (PI) staining of the cells (Fig. 4, Panels A,B). […] In the HeLa cells, the G2/M block was accompanied by a significant reduction of both G1 and S phase cells. In order to determine whether 4o was able to block cells at the mitotic phase (M), cells were stained with an immunofluorescent antibody to p-histone H3, a well known mitotic marker, as well as PI, and analyzed by flow cytometry. As shown in Fig. 4 (Panel C), in which representative histograms are presented, Hela cells arrested in M phase by treatment with 4o are readily distinguished from G2 cells by the higher level of p-histone H3. In particular, treatment with 4o induced an increase in the percentage of mitotic cells from the 2% observed in untreated cells to about 30% with both 50 and 100 nM 4o at 24 h (Fig. 4, Panel D).
5 × 10^5 HeLa or Jurkat cells were treated with different concentrations of the test compounds for 24 h. After the incubation period, the cells were collected, centrifuged, and fixed with ice-cold ethanol (70%). […] Samples were analyzed on a Cytomic FC500 flow cytometer (Beckman Coulter). DNA histograms were analyzed using MultiCycle for Windows (Phoenix Flow Systems).

HeLa [2] = assay: Annexin-V/PI apoptosis assay, HeLa; format: cell-based, human; conditions: 24 h, lowest concentration used (50 nM)
Method: To evaluate the induction of apoptosis by compound 4o in two cell lines (HeLa and Jurkat), we used an annexin-V/PI assay. Dual staining for annexin-V and with PI permits discrimination between live cells (annexin-V^−/PI^−), early apoptotic cells (annexin-V^+/PI^−), late apoptotic cells (annexin-V^+/PI^+) and necrotic cells (annexin-V^−/PI^+).
Cell death was determined by flow cytometry of cells double stained with annexin V/FITC and PI. The Coulter Cytomics FC500 (Beckman Coulter) was used to measure the surface exposure of phosphatidyl serine on apoptotic cells according to the manufacturer’s instructions (Annexin-V Fluos, Roche Diagnostics).

Jurkat = assay: Mitochondrial membrane potential (JC-1), Jurkat; format: cell-based, human; conditions: Jurkat, 50, 100 and 250 nM; time- and concentration-dependent
Method: Mitochondria play an essential role in the propagation of apoptosis. It is well established that, at an early stage, apoptotic stimuli alter the mitochondrial transmembrane potential (Δψmt). Δψmt was monitored by the fluorescence of the dye JC-1. […] This occurred in a time- and concentration-dependent fashion, and, in both cell lines, a significant increase was observed after a 6 h treatment. The disruption of Δψmt is associated with the appearance of annexin-V positivity in the treated cells when they are in an early apoptotic stage. […] Cells were treated with the indicated concentration of compound for 24 or 48 h and then stained with the fluorescent probe JC-1 for analysis of mitochondrial potential or H2-DCFDA for the evaluation of ROS levels. Cells were then analyzed by flow cytometry as described in the experimental section.

HeLa [3] = assay: ROS production (H2-DCFDA), HeLa; format: cell-based, human; conditions: in comparison with control cells
Method: Figure 7 Assessment of mitochondrial membrane potential (Δψmt) and production of ROS after treatment of HeLa (Panels A,B) or Jurkat (Panels C,D) cells with compound 4o. Cells were treated with the indicated concentration of compound for 24 or 48 h and then stained with the fluorescent probe JC-1 for analysis of mitochondrial potential or H2-DCFDA for the evaluation of ROS levels. Cells were then analyzed by flow cytometry as described in the experimental section.
It is also well known that dissipation of mitochondrial potential is associated with mitochondrial production of ROS[38]. Superoxide anion is produced by mitochondria due to a shift from the normal 4-electron reduction of O2 to a 1-electron reduction when cytochrome c is released from mitochondria upon apoptosis. Therefore, we investigated whether ROS production increased after treatment with compound 4o. We utilized the dye 2,7-dichlorodihydrofluorescein diacetate (H2-DCFDA), which is oxidized to the fluorescent compound dichlorofluorescein (DCF) upon ROS induction.

With `CCOc1ccc(-c2nccn2-c2cc(OC)c(OC)c(OC)c2)cc1Cl` [Compound 4o, 2-(3′-Chloro-4′-ethoxyphenyl)-1-(3′,4′,5′-trimethoxyphenyl)-1H-imidazole] the IC50 (HeLa [1]) was 3.8 ± 0.7 nM, the IC50 (A549) was 0.57 ± 0.17 nM and the IC50 (RS4;11) was 1.2 ± 0.7 nM. It also gave an IC50 (HL-60) of 1.8 ± 0.6 nM, an IC50 (bovine brain tubulin; repeated beside the calculated energies, read-out: inhibition of tubulin polymerization IC50 (Table 4)) of 870 nM and an IC50 (bovine brain tubulin; tubulin at 10 μM, 20 min incubation, read-out: Tubulin assembly IC50 ± S.D.) of 870 nM. For the same molecule, the “lowest concentration with a rise in G2/M cells” value (Jurkat cells) was 25 nM, the annexin-V positive cells (HeLa [2]) was “significant accumulation of annexin-V positive cells” and the “percentage of cells with low Δψmt (JC-1)” value (Jurkat) was “remarkable increase”. For the same molecule, the “ROS production (H2-DCFDA)” value (HeLa [3]) was “induced the production of large amounts of ROS”.
